# Measurements published in patent publication US20260062426A1, “CYCLIN DEPENDENT KINASE DEGRADERS AND METHODS OF USE THEREOF” (Differentiated Therapeutics Inc, priority 2023, published 2026).
# Tests used:
# Format in all cases: cell-based
# CDK9 = molecular target: T1, CDK9 (Homo sapiens, UniProt P50750); test: CDK9 HIBIT PQ (protein quantification), degradation; conditions: for Dmax: Max = Maximum; for DC50: PQ = Protein Quantification
# T1 construct: host or cells: HEK293
# Summary of the method: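 HEK293 cells carrying HiBiT-tagged CDK9 were grown in DMEM with 10% FBS and seeded in 384-well plates at 1.6×10^5 cells/well in 50 uL, then incubated overnight at 37° C and 5% CO2. After compound treatment, CDK9 protein was measured with a HiBiT assay. High control was 0.1% DMSO-treated cells and low control was culture medium only. Maximal degradation, Dmax and DC50 were derived from these readings.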
# CCNE1 = molecular target: T2, CCNE1 (Homo sapiens, UniProt P24864+P24941); test: CCNE1 HIBIT PQ (protein quantification), degradation; conditions: for CCNE1 HIBIT PQ Max (%): Max = Maximum; for DC50: PQ = Protein Quantification
# T2 construct: host or cells: HEK293
# Summary of the method: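 Compound was applied for 6 hours to HEK293 cells expressing HiBiT-tagged CCNE1, which had been seeded overnight in 384-well plates at 1.6×10⁵ cells/well. CCNE1 protein was then read by HiBiT assay against a high control of 0.1% DMSO-treated cells and a low control of medium only. These readings gave DC50 and maximal degradation.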
# CDK2 = molecular target: T3, CDK2 (Homo sapiens, UniProt P24941); test: CDK2 HIBIT PQ (protein quantification), degradation; conditions: for CDK2 HIBIT PQ Max (%): Max = Maximum; for DC50: PQ = Protein Quantification
# T3 construct: host or cells: HEK293
# Summary of the method: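 HEK293 cells bearing HiBiT-tagged CDK2 were cultured in DMEM containing 10% FBS, plated in 384-well plates at 1.6×10^5 cells/well in 50 uL, and kept overnight at 37° C and 5% CO2. Following 6 hours of compound exposure, each well received 20 μL of HiBiT reagent (Nano-Glo HiBiT lytic buffer, lytic substrate, LgBiT protein), and plates were shaken for 20 minutes at room temperature and then read on an EnVision, with 0.1% DMSO as the high control and medium only as the low control. DC50 and maximal degradation were calculated from these readings.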
# T1 sequence (P50750 whole entry): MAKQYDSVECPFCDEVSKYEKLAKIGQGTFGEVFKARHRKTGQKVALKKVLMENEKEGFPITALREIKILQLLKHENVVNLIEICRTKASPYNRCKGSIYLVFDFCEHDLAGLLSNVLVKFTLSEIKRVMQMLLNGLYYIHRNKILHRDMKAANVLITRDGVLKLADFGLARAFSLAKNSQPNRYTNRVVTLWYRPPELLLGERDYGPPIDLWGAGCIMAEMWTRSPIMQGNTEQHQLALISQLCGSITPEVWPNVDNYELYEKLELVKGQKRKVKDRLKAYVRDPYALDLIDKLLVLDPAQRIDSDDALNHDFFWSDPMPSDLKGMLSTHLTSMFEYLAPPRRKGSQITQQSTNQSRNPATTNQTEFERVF
Compound,Dmax (CDK9) [%],DC50 (CDK9) [nM],CCNE1 HIBIT PQ Max (%) (CCNE1),DC50 (CCNE1) [nM],CDK2 HIBIT PQ Max (%) (CDK2),DC50 (CDK2) [nM]
"CC(C)Oc1c(-c2cn[nH]c2)ncn2nc(Nc3ccc(S(=O)(=O)N4CCC[C@H](CN5CC[C@@H](c6ccc7c(N8CCC(=O)NC8=O)nn(C)c7c6)CC5(C)C)C4)cc3F)nc12 (single isomer, unassigned) [Compound 96]",80,8.05,75,3.16,87,1
"CC(C)Oc1c(-c2cn[nH]c2)ncn2nc(Nc3ccc(S(=O)(=O)N4CCC[C@H](CN5CC[C@H](c6ccc7c(N8CCC(=O)NC8=O)nn(C)c7c6)CC5(C)C)C4)cc3F)nc12 (single isomer, unassigned) [Compound 104]",13,,48,,75,1
CC(C)Oc1c(-c2cn[nH]c2)ncn2nc(Nc3ccc(S(=O)(=O)N(C)CCCN4CCC(c5ccc6c(c5)n(C)c(=O)n6[C@H]5CCC(=O)NC5=O)CC4)cc3F)nc12 (racemic) [Compound 16],94,0.52,79,0.21,91,< 0.152
CC(C)Oc1c(-c2cn[nH]c2)ncn2nc(Nc3ccc(S(=O)(=O)c4cccc(CN5CCN(c6ccc7c(N8CCC(=O)NC8=O)nn(C)c7c6)CC5C)c4)cc3F)nc12 (racemic) [Compound 39],60,58.5,67,14.9,96,3.3
"CC(C)Oc1c(-c2cn[nH]c2)ncn2nc(NC3CCN(S(=O)(=O)c4cccc(CN5CCC(c6ccc7c(N8CCC(=O)NC8=O)nn(C)c7c6)CC5)c4)CC3)nc12 [Compound 1, 1-(6-(1-(3-((4-((8-isopropoxy-7-(1H-pyrazol-4-yl)-[1,2,4]triazolo[1,5-c]pyrimidin-2-yl)amino)piperidin-1-yl)sulfonyl)benzyl)piperidin-4-yl)-1-methyl-1H-indazol-3-yl)dihydropyrimidine-2,4(1H,3H)-dione]",104,2.98,92,1.94,93,1.62
CC(C)Oc1c(-c2cn[nH]c2)ncn2nc(N[C@H]3CCN(S(=O)(=O)c4cccc(CN5CCN(c6ccc7c(N8CCC(=O)NC8=O)nn(C)c7c6)C(C)C5)c4)C[C@H]3C)nc12 (some centres unmarked) [Compound 49],104,11.6,96,9.43,98,2.2
CC(C)Oc1c(-c2cn[nH]c2)ncn2nc(Nc3ccc(S(=O)(=O)c4cccc(CN5CCC(c6ccc7c(c6)n(C)c(=O)n7C6CCC(=O)NC6=O)CC5)c4)cc3F)nc12 (racemic) [Compound 25],41,,21,,81,0.2
CC(C)Oc1c(-c2cn[nH]c2)ncn2nc(Nc3ccc(S(=O)(=O)N(C)CCCN4CCC(c5cccc6c5n(C)c(=O)n6C5CCC(=O)NC5=O)CC4)cc3F)nc12 (racemic) [Compound 18],87,2.19,82,0.64,90,0.6
CC(C)Oc1c(-c2cn[nH]c2)ncn2nc(Nc3ccc(S(=O)(=O)N(C)CCCN4CCN(c5cccc6c5n(C)c(=O)n6C5CCC(=O)NC5=O)CC4)cc3F)nc12 (racemic) [Compound 17],77,2.7,83,0.94,91,0.26
"CC(C)Oc1c(-c2cn[nH]c2)ncn2nc(Nc3ccc(S(=O)(=O)c4cccc(CN5CCN(c6ccc7c(N8CCC(=O)NC8=O)nn(C)c7c6)CC5C(C)C)c4)cc3F)nc12 (single isomer, unassigned) [Compound 106]",,,59,39.4,94,8.3
"CC(C)Oc1c(-c2cn[nH]c2)ncn2nc(NC3CCN(S(=O)(=O)N4CCC(CN5CCC(c6cccc7c6n(C)c(=O)n7C6CCC(=O)NC6=O)CC5)CC4)CC3)nc12 (racemic) [Compound 6, rac-(R)-3-(4-(1-((1-((4-((8-isopropoxy-7-(1H-pyrazol-4-yl)-[1,2,4]triazolo[1,5-c]pyrimidin-2-yl)amino)piperidin-1-yl)sulfonyl)piperidin-4-yl)methyl)piperidin-4-yl)-3-methyl-2-oxo-2,3-dihydro-1H-benzo[d]imidazol-1-yl)piperidine-2,6-dione]",103,1.48,73,0.88,80,0.59
"CC(C)Oc1c(-c2cn[nH]c2)ncn2nc(Nc3ccc(S(=O)(=O)c4cccc(CN5CCN(c6ccc7c(N8CCC(=O)NC8=O)nn(C)c7c6)CC5C(C)C)c4)cc3F)nc12 (single isomer, unassigned) [Compound 107]",,,71,63.1,93,12
Cc1cc(S(=O)(=O)N(C)CCCN2CCC(c3ccc4c(c3)n(C)c(=O)n4C3CCC(=O)NC3=O)CC2)cc(F)c1Nc1nc2c(OC(C)C)c(-c3cn[nH]c3)ncn2n1 (racemic) [Compound 57],82,2.25,76,0.62,90,0.3
CC(C)Oc1c(-c2cn[nH]c2)ncn2nc(Nc3ccc(S(=O)(=O)N(C)CCCN4CCN(c5ccc6c(c5)n(C)c(=O)n6C5CCC(=O)NC5=O)C[C@@H]4C(C)C)cc3F)nc12 (some centres unmarked) [Compound 64],74,3.38,65,1.79,89,0.2
"CC(C)Oc1c(-c2cn[nH]c2)ncn2nc(Nc3ccc(S(=O)(=O)N4CCCC(CN5CCC(c6ccc7c(N8CCC(=O)NC8=O)nn(C)c7c6)CC5(C)C)C4)cc3F)nc12 (centres unmarked) [Compound 93, 1-(6-(1-((1-((3-fluoro-4-((8-isopropoxy-7-(1H-pyrazol-4-yl)-[1,2,4]triazolo[1,5-c]pyrimidin-2-yl)amino)phenyl)sulfonyl)piperidin-3-yl)methyl)-2,2-dimethylpiperidin-4-yl)-1-methyl-1H-indazol-3-yl)dihydropyrimidine-2,4(1H,3H)-dione]",56,5.87,56,1.22,77,0.7
"CC(C)Oc1c(-c2cn[nH]c2)ncn2nc(Nc3ccc(S(=O)(=O)c4cccc(CC5CC(c6ccc7c(N8CCC(=O)NC8=O)nn(C)c7c6)C5)c4)cc3F)nc12 (centres unmarked) [Compound 33, 1-(6-(3-(3-((3-fluoro-4-((8-isopropoxy-7-(1H-pyrazol-4-yl)-[1,2,4]triazolo[1,5-c]pyrimidin-2-yl)amino)phenyl)sulfonyl)benzyl)cyclobutyl)-1-methyl-1H-indazol-3-yl)dihydropyrimidine-2,4(1H,3H)-dione]",9,,47,,91,19
CC(C)Oc1c(-c2cn[nH]c2)ncn2nc(NC3CCN(S(=O)(=O)N(C)CCCN4CCC(c5cccc6c5n(C)c(=O)n6C5CCC(=O)NC5=O)CC4)CC3)nc12 (racemic) [Compound 19],77,3.8,85,0.77,90,0.87
